Like-named read-outs stand apart in the source and are kept apart here.
Key:
[1] = system: RAW 264.7 cells; test: iNOS assay: inhibition of LPS-stimulated NO production (Griess reaction); format: cell-based, mouse; settings: 18 h
Method: Mouse macrophage RAW 264.7 cells obtained from the American Type Culture Collection (ATCC, Rockville, MD, USA) were cultured in Dulbecco’s modified Eagle’s medium (DMEM) supplemented with 10% heat-inactivated fetal bovine serum (FBS) with antibiotics-antimycotics (PSF; 100 units/mL penicillin G sodium, […] streptomycin, and 250 ng/mL amphotericin B). The cells were seeded in 24-well plates (2 × 10^5 cells/mL). The next day, the culture media was changed to 1% FBS-DMEM, and the samples were treated with the test compounds. After pretreatment with the drug for 1 h, 1 μg/mL lipopolysaccharides (LPS) was added to stimulate NO production. The cells were incubated for an additional 18 h, and the amount of NO produced in the supernatant was determined by Griess reaction. Then, the absorbance was measured at 540 nm, and the nitrite concentration was determined by comparison with a sodium nitrite standard curve. The percent inhibition was calculated using the following formula: [1 − (NO level of test samples/NO levels of vehicle-treated control)] × 100. The IC50 values were calculated through nonlinear regression analysis using TableCurve 2-D v5.01 (Systat Software Inc., San Jose, CA, USA). At the same time, MTT assays were also performed to test cell viability. MTT solution (final concentration of 500 μg/mL) was added to the cells, and they were incubated for 4 h at 37 °C. The culture media was removed, and the remaining dyes were dissolved in DMSO. The absorbance of each well was measured at 570 nm using a VersaMax ELISA microplate reader (Molecular Devices, Sunnyvale, CA, USA). The percent survival was determined by comparison with a control group (LPS+).
Figure S54. Inhibition of NO production of herqueinone compounds purified from Penicillium herquei. The effects of compounds on NO production in RAW 264.7 cells. (A) Cells were pre-treated with compounds (20 uM) and AMT (0.2 uM) for 1 h and LPS (1 ug/mL ) was added further incubated for 18 h . The amount of iNOS was examined by Griess reaction. (B) After iNOS level was measured, cell viability was tested using MTT assay. The values are expressed as the means ± SD of triplicate tests. (C) RAW 264.7 cells were pretreated with various concentrations of compound 7 and AMT (0.2 uM) for 1 h, and LPS (1 ug/mL) was added further incubated for 18 h. The amount of iNOS was examined b y Griess reaction. (D) Cell viability was tested by MTT assay. The values are expressed as the means ± SD of triplicate tests.

[2] = system: HUVECs; test: VEGF-induced tube formation assay (angiogenesis); format: cell-based, human; settings: VEGF 50 ng/mL, 6 h, read-out: IC50, inhibition of tube formation
Method: Human umbilical vascular endothelial cells (HUVECs) were purchased from the American Type Culture Collection (ATCC, Rockville, MD, USA), and cultured in EGM-2 (Lonza, Walkerswille, MD, USA) supplemented with 10% FBS and antibiotics-antimycotics (PSF). The cells were maintained at 37 °C under a humidified atmosphere containing 5% CO2. A 96-well plate was coated with Matrigel (Corning) for 30 min at 37 °C under a humidified atmosphere containing 5% CO2. HUVECs (1.8 × 10^4 cells/well) were mixed with the test compounds in 0.5% FBS EBM-2 medium with VEGF (50 ng/mL) or 0.5% FBS EBM-2 medium only for the VEGF negative control. The cells were incubated for 6 h and photographed using an inverted microscope (Olympus Optical Co. Ltd., Tokyo, Japan). Images were quantified with an angiogenesis analyzer using ImageJ software. Tube formation activity was calculated using the following formula: [(Total segment # (tested compound) − Total segment # (VEGF−)]/[Total segment # (VEGF+) − Total segment # (VEGF−)] × 100 (# stands for tubule segment number). The IC50 values were calculated through nonlinear regression analysis using TableCurve 2-D v5.01 (Systat Software Inc., San Jose, CA, USA). Cell viabilities were evaluated with the MTT assay. HUVECs (0.8 × 10^4 cells/well) were seeded into a 96-well plate and indicated for 1 day. The culture medium was replaced with serum-free medium, and the cells were incubated overnight. After starvation, the cells were treated with the test compounds and VEGF (50 ng/mL) in 2% FBS EBM-2 medium. Cells were incubated for a further 24 h, and MTT solution (final concentration of 500 μg/mL) was added to the cells to measure the cell viability. The formazan products were dissolved in DMSO. The absorbance of each well was measured at 570 nm using a VersaMax ELISA microplate reader (Molecular Devices, Sunnyvale, CA, USA).
Figure S55. Angiogenesis activities of herqueinone compounds purified from Penicillium herquei. Effects of 6 on VEGF-induced tube formation and cell viability. Tube formation activity was measured after cells were incubated with indicated concentrations of 6 on matrigel-coated 96wells for 6 h in the presence of VEGF (50 ng/mL) compared to control in the absence of VEGF. Cell viability was measured by MTT assay after treat with indicated concentrations of 6 in the presence of VEGF (50 ng/mL) for 24 h. The values are expressed as the means ± SD of triplicate tests. * p ≤ 0.05, ** p ≤ 0.01 and *** p ≤ 0.001.

[3] = cytotoxicity assay, K562; format: cell-based; settings: human, K562 cells
Method: (§1) The cytotoxicity assay was performed in accordance with the published protocols. The antimicrobial assay was performed according to the method described previously.

[4] = cytotoxicity assay, A549; format: cell-based; settings: human, A549 cells
Method: as §1

[5] = system: hBM-MSCs; test: adiponectin production assay during adipogenesis (ELISA); format: cell-based; settings: Homo sapiens
Method: Human bone marrow-mesenchymal stem cells (hBM-MSCs) were purchased from Lonza, Inc. (Walkersville, MD, USA) and cultured in low-glucose (1 g/L) DMEM supplemented with 10% FBS, penicillin-streptomycin, and Glutamax^TM (Invitrogen, Carlsbad, CA, USA). To induce adipogenesis, the cell growth medium was replaced with high-glucose (4.5 g/L) DMEM supplemented with 10% FBS, penicillin-streptomycin, 10 μg/mL insulin, 0.5 μM dexamethasone, and 0.5 mM 3-isobutyl-1-methylxanthine (IBMX) (IDX conditions). IBMX, pioglitazone, and aspirin were purchased from Sigma-Aldrich (St. Louis, MO, USA). hBM-MSCs were stained with 0.2% oil red O (ORO) reagent for 10 min at 24 °C, and then washed with H2O four times. Following a 10-min elution with isopropanol, the absorbance was measured at 500 nm using a spectrophotometer. To visualize the nucleus, the hBM-MSCs were counterstained with hematoxylin reagent for 2 min and then washed twice with H2O. The level of adipocyte differentiation was observed and counted using an inverted phase microscope. A Quantikine immunoassay kit (R&D Systems, Minneapolis, MN, USA) was used for quantitative determination of adiponectin in the cell culture supernatants.
Figure S56. PPARγ binding and adiponectin secretion -promoting activities of herqueinone compounds purified from Penicillium herquei. (A) TR-FRET based competitive PPARγ binding assays were performed for herqueinone compounds 1-11. (B) Ki values for compounds 1, 3, 4, 7, 8 and 9 were calculated based on the Cheng and Prusoff analysis. (C) Herqueinone compounds were added to the IDX condition when adipogenesis was induced in hBM-MSCs. On the fifth day, the cell culture supernatants were harvested.
ELISA was performed to measure the level of adiponectin. Positive controls were pioglitazone and aspirin.
(D) The concentration dependency of herqueinone compounds 1, and 9 on adiponectin secretion-promoting activity was determined. Values represent means ± SD (n=3); * p ≤ 0.05 and ** p ≤ 0.01.
(1 picture or pasted object on this page, not shown here)

[6] = Mus musculus, RAW264.7, LPS 1 μg/mL
[7] = IDX conditions, read-out: IC50 values, adiponectin secretion-promoting effects
[8] = adiponectin secretion, Table S1, read-out: EC50 hBM-MSC(B7)

Row | SMILES | IC50 ([1]; LPS 1 μg/mL) | IC50 [2] | IC50 [3] | IC50 [4] | IC50 [1, 6] | IC50 ([2]; Homo sapiens, HUVEC) | EC50 [5, 7] | EC50 [5, 8]
1 | CC(=O)CC1(O)C(=O)C2=c3c(c(O)cc(C)c3=C3O[C@H](C)C(C)(C)[C@]3(O)C2=O)C1=O (stereo partly shown) [Compound 5, Oxopropylisoherqueinone B] | > 20 µM | > 40 µM |  |  |  |  |  | 
2 | CC(=O)CC1(O)C(=O)C2=c3c(c(O)cc(C)c3=C3O[C@H](C)C(C)(C)[C@]3(O)C2=O)C1=O (single isomer, unassigned) [Compound 4, Oxopropylisoherqueinone A] |  |  | > 10 µM | > 10 µM | > 20 µM | > 40 µM |  | 
3 | Cc1cc(O)c2c3c(c(O)c4c(c13)O[C@@H](C)C4(C)C)C(=O)OC2=O [Compound 10, sclerodin] |  |  | > 10 µM | > 10 µM | > 20 µM | > 40 µM |  | 
4 | CC1CCN=C(N)S1 (stereo not shown) [AMT, reference compound] | 0.2 µM |  |  |  |  |  |  | 
5 | Cc1cc(O)c2c3c1=C1O[C@@H](C)C(C)(C)[C@@]1(O)C(=O)C=3C(=O)OC2=O [Compound 6, 4-Hydroxysclerodin] |  |  | > 10 µM | > 10 µM | > 20 µM | 20.9 µM |  | 
6 | CC(=O)CC1(O)C(=O)c2c(O)cc(C)c3c4c(c(O)c(c23)C1=O)C(C)(C)[C@@H](C)O4 (stereo partly shown) [Compound 7, acetone adduct of the triketone] |  |  | > 10 µM | > 10 µM | 3.2 µM | > 40 µM |  | 
7 | COc1c(O)c2c3c(c1O)C(=O)[C@@]1(O)C(=C3C(C)=CC2=O)O[C@H](C)C1(C)C [Compound 8, herqueinone] |  |  | > 10 µM | > 10 µM | > 20 µM | > 40 µM |  | 
8 | CCN(CC)CCNC(=O)c1c(C)[nH]c(/C=C2\C(=O)Nc3ccc(F)cc32)c1C [Sunitinib, reference compound] |  |  |  |  |  | 1.5 µM |  | 
9 | COc1c(O)c2c3c(c1O)C(=O)[C@]1(O)C(=C3C(C)=CC2=O)O[C@H](C)C1(C)C [Compound 3, ent-Isoherqueinone] |  |  | > 10 µM | > 10 µM | > 20 µM | > 40 µM |  | 
10 | COc1c(O)c2c3c(c1O)C(=O)[C@@]1(O)C(=C3C(C)=CC2=O)O[C@@H](C)C1(C)C [Compound 9, isoherqueinone] |  |  | > 10 µM | > 10 µM | > 20 µM | > 40 µM | 39.7 µM | 39.7 µM
11 | COc1c(O)c2c3c(c1O)C(=O)[C@@]1(O)C(=C3C(C)=C(O)C2=O)O[C@@H](C)C1(C)C [Compound 1, ent-Peniciherqueinone] |  |  | > 10 µM | > 10 µM | > 20 µM | > 40 µM | 57.5 µM | 57.5 µM
12 | CCc1ccc(CCOc2ccc(CC3SC(=O)NC3=O)cc2)nc1 (stereo not shown) [Pioglitazone, pioglitazone, reference compound] |  |  |  |  |  |  |  | 0.69 µM
13 | Cc1cc(O)c2c3c(c(O)c4c(c13)O[C@@H](C)C4(C)C)C(=O)C(=O)O2 [Compound 11, scleroderolide] |  |  | > 10 µM | > 10 µM | > 20 µM | > 40 µM |  | 
14 | CC1=C(O)C(=O)c2c(O)c(O)c(O)c3c2C1=C1O[C@@H](C)C(C)(C)[C@@]1(O)C3=O [Compound 2, 12-Hydroxynorherqueinone] |  |  | > 10 µM | > 10 µM | > 20 µM | > 40 µM |  | 

From article PMC6470642, “Phenalenones from a Marine-Derived Fungus Penicillium sp” (Marine Drugs, 2019)
